Experimental data as given in ChEMBL document CHEMBL3243928, “N-(2,4,5-Trihydroxyphenehtyl)normetazocine, a potential irreversible inhibitor of the narcotic receptor” (J Med Chem, 1977).
The source made the active and inactive calls. The rule behind the calls is not given here.

Columns and labels:
NG108-15 [1] = test: Antagonist activity at opiate receptor in mouse/rat NG108-15 cells assessed as inhibition of adenylate cyclase activity at 10^-7 M after 3 mins; type: cell-based
Mus musculus [2] = test: Inhibition of norepinephrine release in sc dosed mouse heart administered 60 mins before [3H]-norepinephrine challenge; type: functional
NG108-15 [3] = test: Antagonist activity at opiate receptor in mouse/rat NG108-15 cells assessed as inhibition of adenylate cyclase activity at 2 x 10^-4 M after 3 mins; type: cell-based
NG108-15 [4] = test: Antagonist activity at opiate receptor in mouse/rat NG108-15 cells assessed as inhibition of adenylate cyclase activity at 10^-3 M after 3 mins; type: cell-based
Mus musculus [5] = test: Inhibition of norepinephrine release in mouse heart at >150 umol/kg, sc administered 60 mins before [3H]-norepinephrine challenge; type: functional, organism-based
Mus musculus [6] = test: Antinociceptive activity in mouse at 50 mg/kg, sc by hot-plate assay; type: functional, organism-based; parameters: dose 50 mg/kg
Mus musculus [7] = test: Toxicity in mouse at 80 mg/kg, iv; type: organism-based; parameters: dose 80 mg/kg, route intravenous; conditions: in vivo
Mus musculus [8] = test: Ratio of morphine to compound for analgesic activity in ip dosed mouse; type: functional
[9] = molecular target: Opioid receptor (Rattus norvegicus) (UniProt P33533+P34975+P33535); test: Ratio of morphine to compound for binding affinity to rat brain opiate receptor
Chain of Opioid receptor (Rattus norvegicus) (P33533 whole entry, looked up): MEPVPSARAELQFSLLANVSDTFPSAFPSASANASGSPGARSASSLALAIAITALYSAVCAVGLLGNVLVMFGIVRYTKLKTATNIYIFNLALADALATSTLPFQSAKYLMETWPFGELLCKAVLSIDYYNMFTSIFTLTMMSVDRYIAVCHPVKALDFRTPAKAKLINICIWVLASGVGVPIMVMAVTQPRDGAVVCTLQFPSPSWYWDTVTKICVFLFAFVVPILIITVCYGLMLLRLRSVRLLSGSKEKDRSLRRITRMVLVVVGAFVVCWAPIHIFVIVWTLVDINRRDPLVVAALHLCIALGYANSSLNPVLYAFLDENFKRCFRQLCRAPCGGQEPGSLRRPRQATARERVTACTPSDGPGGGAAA
Chain of Opioid receptor (Rattus norvegicus) (P33535 whole entry, looked up): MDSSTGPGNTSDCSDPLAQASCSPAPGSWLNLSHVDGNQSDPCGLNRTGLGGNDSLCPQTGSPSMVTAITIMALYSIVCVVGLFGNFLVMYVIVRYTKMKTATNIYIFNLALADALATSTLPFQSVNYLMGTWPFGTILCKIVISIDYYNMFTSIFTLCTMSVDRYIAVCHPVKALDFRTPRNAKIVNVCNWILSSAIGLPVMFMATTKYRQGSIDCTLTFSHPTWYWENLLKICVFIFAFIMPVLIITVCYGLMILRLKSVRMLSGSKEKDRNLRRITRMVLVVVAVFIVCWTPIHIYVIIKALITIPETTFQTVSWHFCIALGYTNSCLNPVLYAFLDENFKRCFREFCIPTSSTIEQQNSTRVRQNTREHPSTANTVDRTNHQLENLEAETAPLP
Chain of Opioid receptor (Rattus norvegicus) (P34975 whole entry, looked up): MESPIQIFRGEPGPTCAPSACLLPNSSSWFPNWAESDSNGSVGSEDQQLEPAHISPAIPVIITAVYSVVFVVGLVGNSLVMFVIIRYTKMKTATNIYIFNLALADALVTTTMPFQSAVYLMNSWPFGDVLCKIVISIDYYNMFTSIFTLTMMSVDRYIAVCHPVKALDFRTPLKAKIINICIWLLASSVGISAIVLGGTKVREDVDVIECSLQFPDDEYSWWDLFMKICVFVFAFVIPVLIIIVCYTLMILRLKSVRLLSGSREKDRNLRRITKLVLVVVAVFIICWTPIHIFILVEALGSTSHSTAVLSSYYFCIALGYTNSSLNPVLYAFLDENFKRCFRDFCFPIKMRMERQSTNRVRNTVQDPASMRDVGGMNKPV

Mus musculus [10] = test: Toxicity in iv dosed mouse; type: organism-based; conditions: in vivo
Mus musculus [11] = test: Toxicity in mouse at 5 mg/kg, iv; type: organism-based; parameters: dose 5 mg/kg, route intravenous; conditions: in vivo
[12] = Mus musculus, sc, read-out: ED50

CN1CC[C@]23c4c5ccc(O)c4O[C@H]2[C@@H](O)C=C[C@H]3[C@H]1C5
inhibition (NG108-15 [1]): Active

CC1C2Cc3ccc(O)cc3C1(C)CCN2CCc1cc(O)c(O)cc1O.I (stereo not drawn)
ED50 (Mus musculus [2]): 0 µmol/kg
inhibition (NG108-15 [3]): inactive
inhibition (NG108-15 [4]): Active
inhibition (Mus musculus [5]): inactive
Activity (Mus musculus [6]): Active
Activity (Mus musculus [7]): Non-toxic

CC1C2Cc3ccc(O)cc3C1(C)CCN2CCc1ccc(N)cc1 (stereo not drawn)
Ratio (Mus musculus [8]): 20

Nc1ccc(CCN2CC[C@]34CCCC[C@H]3[C@H]2Cc2ccc(O)cc24)cc1
Ratio [9]: > 10

COc1ccc(CCN2CCC3(C)c4cc(O)ccc4CC2C3C)cc1 (stereo not drawn)
Ratio (Mus musculus [8]): 8

CC(N)Cc1ccc(O)cc1 (stereo not drawn) [HYDROXYAMPHETAMINE]
ED50 (Mus musculus [2]; [12]): 13 µmol/kg

NCCc1cc(O)c(O)cc1O [OXIDOPAMINE]
ED50 (Mus musculus [2]; [12]): 6.8 µmol/kg

CN(C)CCc1ccc(O)cc1 [HORDENINE]
ED50 (Mus musculus [2]; [12]): > 400 µmol/kg

CC(N)Cc1cc(O)c(O)cc1O (stereo not drawn)
ED50 (Mus musculus [2]; [12]): 4.2 µmol/kg

COC(=O)[C@H]1[C@@H](OC(=O)c2ccccc2)C[C@@H]2CC[C@H]1N2C [COCAINE]
ED50 (Mus musculus [2]): 0 µmol/kg

CC1C2Cc3ccc(O)cc3C1(C)CCN2CCc1ccccc1 (stereo not drawn) [PHENAZOCINE]
Ratio (Mus musculus [8]): 10

C[C@H]1C2Cc3ccc(O)cc3C1(C)CCN2 (stereo partly drawn)
Activity (Mus musculus [10]): Toxic
LD100 (Mus musculus [11]): 10 mg/kg
